In patent US9249125B2, “Pyrazole derivatives as p38 MAP inhibitors” (RESPIVERT LIMITED, priority 2012, dated 2016):

Tests used:
[1] = target: p38 MAPKα (Homo sapiens (Human), UniProt Q16539); test: p38 MAPKα enzyme inhibition (FRET, Z-LYTE); format: biochemical
[2] = target: cSrc (Homo sapiens (Human), UniProt P12931); test: c-Src enzyme inhibition (FRET, Z-LYTE); format: biochemical
Procedure, shortened: (§1)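 Z-LYTE FRET kinase assay: enzyme (3000 or 2000 ng/mL stock, respectively) preincubated 2 h at RT with compound (4–0.004 μg/mL stocks), then FRET peptide plus ATP (800 μM stock for c-Src, 60 μM for Syk) added for 1 h. Protease development 1 h; phosphorylation from coumarin/fluorescein emission ratio.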

[3] = target: Syk (Homo sapiens (Human), UniProt P43405); test: Syk enzyme inhibition (FRET, Z-LYTE); format: biochemical
Procedure, shortened: as §1

[4] = target: GSK3α (Homo sapiens (Human), UniProt P49840); test: GSK 3α enzyme inhibition (FRET, Z-LYTE); format: biochemical
Sequence of GSK3α (P49840 whole entry): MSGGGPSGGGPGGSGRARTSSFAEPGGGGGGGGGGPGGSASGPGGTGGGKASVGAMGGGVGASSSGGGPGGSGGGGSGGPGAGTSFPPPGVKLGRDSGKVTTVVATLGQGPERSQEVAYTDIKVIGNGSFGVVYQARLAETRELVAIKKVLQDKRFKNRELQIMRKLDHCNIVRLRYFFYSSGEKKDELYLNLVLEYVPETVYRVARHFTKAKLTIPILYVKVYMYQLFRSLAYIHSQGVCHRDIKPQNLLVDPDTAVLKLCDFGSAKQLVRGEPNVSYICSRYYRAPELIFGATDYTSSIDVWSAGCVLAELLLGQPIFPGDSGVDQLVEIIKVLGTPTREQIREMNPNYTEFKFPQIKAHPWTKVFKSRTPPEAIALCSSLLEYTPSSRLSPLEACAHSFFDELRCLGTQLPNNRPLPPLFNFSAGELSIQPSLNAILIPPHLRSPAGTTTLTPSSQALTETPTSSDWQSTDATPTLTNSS
Procedure, shortened: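 GSK3α (500 ng/mL stock) was preincubated 2 hr at RT with compound (4 to 0.004 μg/mL stocks), then FRET peptide (8 μM stock) and ATP (40 μM stock) added for 1 hr. Protease development for 1 hr cleaved unphosphorylated peptide; coumarin/fluorescein emission ratio reported phosphorylation.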

[5] = test system: LPS-induced TNFα release in d-U937 cells; test: LPS-induced TNFα release in d-U937 cells; format: cell-based; details: Homo sapiens, dU937, relative to 10 μg/mL BIRB796, read-out: LPS Induced Release of Cytokine in d-937 Cells TNFα REC50
Procedure, shortened: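 Sandwich ELISA of culture supernatant gives TNFα and IL-8 levels after a 4 hr challenge with LPS (0.1 μg/mL, E. coli O111:B4). Before stimulation, macrophage-like U937 cells, obtained by 48–72 hr in PMA at 100 ng/mL, sit with compound for 2 hr. Relative EC50 is derived from concentration-response data.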

[6] = test system: LPS-induced IL-8 release in d-U937 cells; test: LPS-induced IL-8 release in d-U937 cells; format: cell-based; details: Homo sapiens, dU937, read-out: LPS Induced Release of Cytokine in d-937 Cells IL-8 IC50
Procedure, shortened: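 First, U937 monocytes undergo PMA treatment (100 ng/mL) for 48 to 72 hr to become macrophage-type. Next, compound at final concentrations is added for 2 hr, followed by LPS at 0.1 μg/mL for 4 hr. Finally, cytokines in the supernatant are quantified by ELISA against vehicle-treated cells.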

[7] = test system: Poly I:C-induced ICAM-1 expression in BEAS2B cells; test: Poly I:C-induced ICAM-1 expression in BEAS2B cells; format: cell-based; details: Homo sapiens, BEAS-2B, read-out: Poly IC induced ICAM1 in BEAS2B IC50
Procedure, shortened: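 BEAS2B human bronchial epithelial cells pre-incubated with compound for 2 hr, then transfected with 1 μg/mL poly I:C plus Oligofectamine. At 18 hr, surface ICAM-1 measured by cell-based ELISA (HRP, OD450–655). Signal corrected for cell number by crystal violet OD595.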

[8] = test system: d-U937 cells; test: Cell viability: MTT assay; format: cell-based, human; details: 1 μg/mL
Procedure, shortened: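 Differentiated U937 cells were exposed to compound at 1 or 10 μg/mL either 4 h in 5% FCS RPMI1640 or 24 h in 10% FCS RPMI1640, then given MTT for 1 h, DMSO-solubilised and read at 550 nm. Percent viability loss versus 0.5% DMSO vehicle; apparent gains appear negative.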

Sequence of p38 MAPKα (Q16539 whole entry): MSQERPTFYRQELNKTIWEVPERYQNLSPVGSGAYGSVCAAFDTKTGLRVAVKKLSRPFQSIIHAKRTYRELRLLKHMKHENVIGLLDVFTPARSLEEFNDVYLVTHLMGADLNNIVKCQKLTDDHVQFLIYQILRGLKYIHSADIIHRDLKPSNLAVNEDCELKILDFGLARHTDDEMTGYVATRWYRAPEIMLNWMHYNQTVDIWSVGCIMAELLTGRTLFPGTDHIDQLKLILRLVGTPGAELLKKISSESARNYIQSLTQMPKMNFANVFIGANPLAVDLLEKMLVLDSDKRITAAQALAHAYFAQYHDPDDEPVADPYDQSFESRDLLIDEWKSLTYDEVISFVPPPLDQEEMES
Sequence of cSrc (P12931 whole entry, looked up): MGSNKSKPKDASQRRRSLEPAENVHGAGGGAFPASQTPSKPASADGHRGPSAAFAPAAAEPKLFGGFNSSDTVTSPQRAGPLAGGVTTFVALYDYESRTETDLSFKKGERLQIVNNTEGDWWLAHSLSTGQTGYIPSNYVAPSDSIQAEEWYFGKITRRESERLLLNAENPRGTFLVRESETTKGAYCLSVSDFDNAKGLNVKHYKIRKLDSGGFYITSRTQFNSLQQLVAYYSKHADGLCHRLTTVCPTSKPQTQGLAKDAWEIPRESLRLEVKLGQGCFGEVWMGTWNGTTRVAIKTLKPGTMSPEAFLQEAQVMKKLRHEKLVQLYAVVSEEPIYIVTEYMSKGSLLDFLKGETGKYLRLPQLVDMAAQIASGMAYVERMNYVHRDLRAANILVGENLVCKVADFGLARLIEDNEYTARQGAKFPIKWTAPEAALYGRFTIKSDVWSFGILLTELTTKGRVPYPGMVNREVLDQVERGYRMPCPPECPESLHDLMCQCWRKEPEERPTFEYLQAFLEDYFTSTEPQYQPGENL

Structure (SMILES) | IC50 [1] [nM] | IC50 [2] [nM] | IC50 [3] [nM] | IC50 [4] [nM] | EC50 [5] [nM] | IC50 [6] [nM] | IC50 [7] [nM] | MTT Assay Cell viability at time point in d-U937 cells 4 h [8] | MTT Assay Cell viability at time point in d-U937 cells 24 h [8]
Cc1ccc(-n2nc(C(C)(C)C)cc2NC(=O)Nc2ccc(Oc3ccnc(Nc4ccc5c(c4)OCO5)n3)c3ccccc23)cc1 [Example 33, 1-(4-((2-(benzo[d][1,3]dioxol-5-ylamino)pyrimidin-4-yl)oxy)naphthalen-1-yl)-3-(3-(tert-butyl)-1-(p-tolyl)-1H-pyrazol-5-yl)urea] | 369 | 23 | 671 | 5140 | 3.8 | 3.3 | 2.7 | −ve (−ve and +ve indicate that the value is below and above respectively, the no significant effect threshold, defined as 30% inhibition at 1 μg/mL at the time point indicated.) | −ve (−ve and +ve indicate that the value is below and above respectively, the no significant effect threshold, defined as 30% inhibition at 1 μg/mL at the time point indicated.)
Cc1ccc(-n2nc(C(C)(C)C)cc2NC(=O)Nc2ccc(Oc3ccnc(Nc4ccc5c(c4)CC(=O)N5C)n3)c3ccccc23)cc1 [Example 20, 1-(3-(tert-butyl)-1-(p-tolyl)-1H-pyrazol-5-yl)-3-(4-((2-((1-methyl-2-oxoindolin-5-yl)amino)pyrimidin-4-yl)oxy)naphthalen-1-yl)urea] | 61 | 113 | 6 | 900 | 1.7 | 2.2 | 6.3 | −ve (−ve and +ve indicate that the value is below and above respectively, the no significant effect threshold, defined as 30% inhibition at 1 μg/mL at the time point indicated.) | −ve (−ve and +ve indicate that the value is below and above respectively, the no significant effect threshold, defined as 30% inhibition at 1 μg/mL at the time point indicated.)
CC(C)(C)c1cc(NC(=O)Nc2ccc(Oc3ccnc(Nc4ccc5c(cnn5CCN5CCOCC5)c4)n3)c3ccccc23)n(-c2ccc(OCCN3CCOCC3)nc2)n1 [Example 92, 1-(3-(tert-butyl)-1-(6-(2-morpholinoethoxy)pyridin-3-yl)-1H-pyrazol-5-yl)-3-(4-((2-((1-(2-morpholinoethyl)-1H-indazol-5-yl)amino)pyrimidin-4-yl)oxy)naphthalen-1-yl)urea] | 5 | < 1 | < 1 | 569 | 1.5 | 11.5 | 5.3 | −ve (−ve and +ve indicate that the value is below and above respectively, the no significant effect threshold, defined as 30% inhibition at 1 μg/mL at the time point indicated.) | −ve (−ve and +ve indicate that the value is below and above respectively, the no significant effect threshold, defined as 30% inhibition at 1 μg/mL at the time point indicated.)
CC(C)(C)c1cc(NC(=O)Nc2ccc(Oc3ccnc(Nc4ccc5sncc5c4)n3)c3ccccc23)n(-c2ccc(OCCN3CCOCC3)cc2)n1 [Example 78, 1-(4-((2-(benzo[d]isothiazol-5-ylamino)pyrimidin-4-yl)oxy)naphthalen-1-yl)-3-(3-(tert-butyl)-1-(4-(2-morpholinoethoxy)phenyl)-1H-pyrazol-5-yl)urea] | 139 | 8 | 33 | 2420 | 4.7 | 7.4 | 7.9 | −ve (−ve and +ve indicate that the value is below and above respectively, the no significant effect threshold, defined as 30% inhibition at 1 μg/mL at the time point indicated.) | −ve (−ve and +ve indicate that the value is below and above respectively, the no significant effect threshold, defined as 30% inhibition at 1 μg/mL at the time point indicated.)
CC(C)c1cc(NC(=O)Nc2ccc(Oc3cc(Nc4ccc5[nH]ncc5c4)ncn3)c3ccccc23)n(-c2ccc(=O)n(CCO)c2)n1 [Example 84, 1-(4-((6-((1H-indazol-5-yl)amino)pyrimidin-4-yl)oxy)naphthalen-1-yl)-3-(1-(1-(2-hydroxyethyl)-6-oxo-1,6-dihydropyridin-3-yl)-3-isopropyl-1H-pyrazol-5-yl)urea] | < 1.5 | 3 | 12 | 278 | 147 | 217 | > 152 | −ve (−ve and +ve indicate that the value is below and above respectively, the no significant effect threshold, defined as 30% inhibition at 1 μg/mL at the time point indicated.) | −ve (−ve and +ve indicate that the value is below and above respectively, the no significant effect threshold, defined as 30% inhibition at 1 μg/mL at the time point indicated.)
CC(C)(C)c1cc(NC(=O)Nc2ccc(Oc3ccnc(Nc4ccc5[nH]ncc5c4)n3)c3ccccc23)n(-c2cccc(CN3CCCC3=O)c2)n1 [Example 49, 1-(4-((2-((1H-indazol-5-yl)amino)pyrimidin-4-yl)oxy)naphthalen-1-yl)-3-(3-(tert-butyl)-1-(3-((2-oxopyrrolidin-1-yl)methyl)phenyl)-1H-pyrazol-5-yl)urea] | 29 | 5 | 12 | 1350 | 2.5 | 9.7 | 2.2 | −ve (−ve and +ve indicate that the value is below and above respectively, the no significant effect threshold, defined as 30% inhibition at 1 μg/mL at the time point indicated.) | −ve (−ve and +ve indicate that the value is below and above respectively, the no significant effect threshold, defined as 30% inhibition at 1 μg/mL at the time point indicated.)
Cc1n[nH]c2cc(Nc3nccc(Oc4ccc(NC(=O)Nc5cc(C(C)(C)C)nn5-c5ccc(OCCN6CCOCC6)cc5)c5ccccc45)n3)ccc12 [Example 71, 1-(3-(tert-butyl)-1-(4-(2-morpholinoethoxy)phenyl)-1H-pyrazol-5-yl)-3-(4-((2-((3-methyl-1H-indazol-6-yl)amino)pyrimidin-4-yl)oxy)naphthalen-1-yl)urea] | 269 | 12 | 9 | 3440 | 11.1 | > 1330 | 2.2 | −ve (−ve and +ve indicate that the value is below and above respectively, the no significant effect threshold, defined as 30% inhibition at 1 μg/mL at the time point indicated.) | −ve (−ve and +ve indicate that the value is below and above respectively, the no significant effect threshold, defined as 30% inhibition at 1 μg/mL at the time point indicated.)
COc1ccc(-n2nc(C(C)C)cc2NC(=O)Nc2ccc(Oc3ccnc(Nc4ccc5[nH]nc(OCCN6CCOCC6)c5c4)n3)c3ccccc23)cc1 [Example 44, 1-(3-isopropyl-1-(4-methoxyphenyl)-1H-pyrazol-5-yl)-3-(4-((2-((3-(2-morpholinoethoxy)-1H-indazol-5-yl)amino)pyrimidin-4-yl)oxy)naphthalen-1-yl)urea] | 5 | 2 | 2 | 203 | 0.4 | 0.8 | 1.4 | −ve (−ve and +ve indicate that the value is below and above respectively, the no significant effect threshold, defined as 30% inhibition at 1 μg/mL at the time point indicated.) | −ve (−ve and +ve indicate that the value is below and above respectively, the no significant effect threshold, defined as 30% inhibition at 1 μg/mL at the time point indicated.)
